In the supplement of paper PMC10307832:

How the values were obtained:
Assay in all cases: relative viability (nuclei count vs DMSO), 5 days (fraction); higher = more cells survive
NCI-H23 = test system: NCI-H23
In short: (§1)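 For relative viability, nuclei counts in treated wells were divided by those in vehicle wells. Lung cancer cell lines had been pin-tool dosed in 1536-well plates the day after seeding and cultured for 5 days, then fixed and stained in one step (final 0.05% Triton X-100, 1% formaldehyde, 1 ug/ml Hoechst) and imaged at 4×. Doses were one drug alone or a fixed anchor-drug dose plus five library-drug doses (not always all listed) in √10 steps, and values are duplicate-plate medians.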

EMC-BAC-2 = test system: EMC-BAC-2
In short: as §1

LU99A = test system: LU99A
In short: as §1

NCI-H1666 = test system: NCI-H1666
In short: as §1

HCC-44 = test system: HCC-44
In short: as §1

LK-2 = test system: LK-2
In short: as §1

LXF-289 = test system: LXF-289
In short: as §1

RERF-LC-KJ = test system: RERF-LC-KJ
In short: as §1

SW 1573 = test system: SW 1573
In short: as §1

ChaGo-K-1 = test system: ChaGo-K-1
In short: as §1

SW 900 = test system: SW 900
In short: as §1

LOU-NH91 = test system: LOU-NH91
In short: as §1

HCC-366 = test system: HCC-366
In short: as §1

NCI-H3122 = test system: NCI-H3122
In short: as §1

EPLC-272H = test system: EPLC-272H
In short: as §1

SK-LU-1 = test system: SK-LU-1
In short: as §1

NCI-H2126 = test system: NCI-H2126
In short: as §1

NCI-H2405 = test system: NCI-H2405
In short: as §1

NCI-H1975 = test system: NCI-H1975
In short: as §1

HCC-78 = test system: HCC-78
In short: as §1

HCC-827 = test system: HCC-827
In short: as §1

NCI-H2085 = test system: NCI-H2085
In short: as §1

LCLC-103H = test system: LCLC-103H
In short: as §1

## C[C@@H]1CN(CC(=O)Nc2ccc3c(c2)Cc2cccc(-c4cc(=O)cc(N5CCOCC5)o4)c2S3)C[C@H](C)O1 + CC(=O)c1c(C)c2cnc(Nc3ccc(N4CCNCC4)cn3)nc2n(C2CCCC2)c1=O [Palbociclib] (partner 0.5 µM)
NCI-H23; first compound 0.04 µM
  relative viability: 0.455
NCI-H23; first compound 0.1265 µM
  relative viability: 0.538
NCI-H23; first compound 0.4 µM
  relative viability: 0.436
NCI-H23; first compound 4 µM
  relative viability: 0.495
EMC-BAC-2; first compound 0.04 µM
  relative viability: 0.502
EMC-BAC-2; first compound 0.1265 µM
  relative viability: 0.529
EMC-BAC-2; first compound 0.4 µM
  relative viability: 0.502
EMC-BAC-2; first compound 4 µM
  relative viability: 0.545
LU99A; first compound 0.04 µM
  relative viability: 0.387
LU99A; first compound 0.1265 µM
  relative viability: 0.404
LU99A; first compound 0.4 µM
  relative viability: 0.449
LU99A; first compound 4 µM
  relative viability: 0.445
NCI-H1666; first compound 0.04 µM
  relative viability: 0.584
NCI-H1666; first compound 0.1265 µM
  relative viability: 0.616
NCI-H1666; first compound 0.4 µM
  relative viability: 0.611
NCI-H1666; first compound 4 µM
  relative viability: 0.662
HCC-44; first compound 0.04 µM
  relative viability: 0.917
HCC-44; first compound 0.1265 µM
  relative viability: 0.965
HCC-44; first compound 0.4 µM
  relative viability: 0.929
HCC-44; first compound 4 µM
  relative viability: 0.919
LK-2; first compound 0.04 µM
  relative viability: 0.6
LK-2; first compound 0.1265 µM
  relative viability: 0.697
LK-2; first compound 0.4 µM
  relative viability: 0.651
LK-2; first compound 4 µM
  relative viability: 0.792
LXF-289; first compound 0.04 µM
  relative viability: 0.616
LXF-289; first compound 0.1265 µM
  relative viability: 0.617
LXF-289; first compound 0.4 µM
  relative viability: 0.613
LXF-289; first compound 4 µM
  relative viability: 0.549
RERF-LC-KJ; first compound 0.04 µM
  relative viability: 1.03
RERF-LC-KJ; first compound 0.1265 µM
  relative viability: 1.05
RERF-LC-KJ; first compound 0.4 µM
  relative viability: 1.17
RERF-LC-KJ; first compound 4 µM
  relative viability: 0.818
SW 1573; first compound 0.04 µM
  relative viability: 0.501
SW 1573; first compound 0.1265 µM
  relative viability: 0.337
SW 1573; first compound 0.4 µM
  relative viability: 0.393
SW 1573; first compound 4 µM
  relative viability: 0.264
ChaGo-K-1; first compound 0.04 µM
  relative viability: 0.902
ChaGo-K-1; first compound 0.1265 µM
  relative viability: 0.924
ChaGo-K-1; first compound 0.4 µM
  relative viability: 0.925
ChaGo-K-1; first compound 4 µM
  relative viability: 0.898
SW 900; first compound 0.04 µM
  relative viability: 0.532
SW 900; first compound 0.1265 µM
  relative viability: 0.472
SW 900; first compound 0.4 µM
  relative viability: 0.564
SW 900; first compound 4 µM
  relative viability: 0.412
LOU-NH91; first compound 0.04 µM
  relative viability: 0.536
LOU-NH91; first compound 0.1265 µM
  relative viability: 0.481
LOU-NH91; first compound 0.4 µM
  relative viability: 0.55
LOU-NH91; first compound 4 µM
  relative viability: 0.509
HCC-366; first compound 0.04 µM
  relative viability: 0.386
HCC-366; first compound 0.1265 µM
  relative viability: 0.467
HCC-366; first compound 0.4 µM
  relative viability: 0.395
HCC-366; first compound 4 µM
  relative viability: 0.184
NCI-H3122; first compound 0.04 µM
  relative viability: 0.214
NCI-H3122; first compound 0.1265 µM
  relative viability: 0.201
NCI-H3122; first compound 0.4 µM
  relative viability: 0.176
NCI-H3122; first compound 4 µM
  relative viability: 0.161
EPLC-272H; first compound 0.04 µM
  relative viability: 0.38
EPLC-272H; first compound 0.1265 µM
  relative viability: 0.388
EPLC-272H; first compound 0.4 µM
  relative viability: 0.331
EPLC-272H; first compound 4 µM
  relative viability: 0.321
SK-LU-1; first compound 0.04 µM
  relative viability: 0.434
SK-LU-1; first compound 0.1265 µM
  relative viability: 0.372
SK-LU-1; first compound 0.4 µM
  relative viability: 0.367
SK-LU-1; first compound 4 µM
  relative viability: 0.387
NCI-H2126; first compound 0.04 µM
  relative viability: 0.384
NCI-H2126; first compound 0.1265 µM
  relative viability: 0.343
NCI-H2126; first compound 0.4 µM
  relative viability: 0.348
NCI-H2126; first compound 4 µM
  relative viability: 0.334
NCI-H2405; first compound 0.04 µM
  relative viability: 0.564
NCI-H2405; first compound 0.1265 µM
  relative viability: 0.521
NCI-H2405; first compound 0.4 µM
  relative viability: 0.486
NCI-H2405; first compound 4 µM
  relative viability: 0.506
NCI-H1975; first compound 0.04 µM
  relative viability: 0.578
NCI-H1975; first compound 0.1265 µM
  relative viability: 0.58
NCI-H1975; first compound 0.4 µM
  relative viability: 0.395
NCI-H1975; first compound 4 µM
  relative viability: 0.487
HCC-78; first compound 0.04 µM
  relative viability: 0.456
HCC-78; first compound 0.1265 µM
  relative viability: 0.458
HCC-78; first compound 0.4 µM
  relative viability: 0.48
HCC-78; first compound 4 µM
  relative viability: 0.487
HCC-827; first compound 0.04 µM
  relative viability: 0.502
HCC-827; first compound 0.1265 µM
  relative viability: 0.49
HCC-827; first compound 0.4 µM
  relative viability: 0.433
HCC-827; first compound 4 µM
  relative viability: 0.442
NCI-H2085; first compound 0.04 µM
  relative viability: 0.476
NCI-H2085; first compound 0.1265 µM
  relative viability: 0.436
NCI-H2085; first compound 0.4 µM
  relative viability: 0.498
NCI-H2085; first compound 4 µM
  relative viability: 0.419
LCLC-103H; first compound 0.04 µM
  relative viability: 0.441
LCLC-103H; first compound 0.1265 µM
  relative viability: 0.47
LCLC-103H; first compound 0.4 µM
  relative viability: 0.446
LCLC-103H; first compound 4 µM
  relative viability: 0.47
